A word on the IC50: it is the concentration that gives 50% inhibition. High values mean lower potency, low ones higher potency. Broadly, the GI50 is the concentration giving 50% growth inhibition. A lower GI50 goes with greater sensitivity of the cells.

Among the data in ChEMBL document CHEMBL1156016, “Discovery of potent and selective histone deacetylase inhibitors via focused combinatorial libraries of cyclic alpha3beta-tetrapeptides” (J Med Chem, 2009) are IC50, Activity and GI50 values, retold here.

The target in experiment [1] is Histone deacetylase. The class given is cell-based, Homo sapiens. As to conditions: hela.
Description: Inhibition of HDAC in human HeLa cell nuclear extract after 30 mins by fluorimetric assay
Experiment [2] deals with Histone deacetylase. It counts as cell-based, Homo sapiens. As to conditions: hela. This is another data set of the same source.
Description: Inhibition of HDAC in human HeLa cell cytosolic extract after 30 mins by fluorimetric assay
In a further experiment the target is Histone deacetylase 1 (Homo sapiens, UniProt Q13547).
Another experiment has as its target Histone deacetylase 3 (Homo sapiens, UniProt O15379).
The next experiment addresses T1, Histone deacetylase 8 (Homo sapiens, UniProt Q9BY41).
T1 sequence (Q9BY41 whole entry): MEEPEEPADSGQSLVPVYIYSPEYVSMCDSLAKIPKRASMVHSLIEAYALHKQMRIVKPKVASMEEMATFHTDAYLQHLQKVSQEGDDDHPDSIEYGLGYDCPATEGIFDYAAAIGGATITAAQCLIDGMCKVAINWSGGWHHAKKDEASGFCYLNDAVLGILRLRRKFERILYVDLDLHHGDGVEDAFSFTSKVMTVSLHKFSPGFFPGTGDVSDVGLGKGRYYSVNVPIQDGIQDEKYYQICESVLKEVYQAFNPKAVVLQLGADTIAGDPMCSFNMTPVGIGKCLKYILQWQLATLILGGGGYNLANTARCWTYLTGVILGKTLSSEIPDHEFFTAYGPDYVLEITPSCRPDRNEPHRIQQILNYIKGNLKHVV

In experiment [3] the target is T2, Protein deacetylase HDAC6 (Homo sapiens, UniProt Q9UBN7).
T2 sequence (Q9UBN7 whole entry): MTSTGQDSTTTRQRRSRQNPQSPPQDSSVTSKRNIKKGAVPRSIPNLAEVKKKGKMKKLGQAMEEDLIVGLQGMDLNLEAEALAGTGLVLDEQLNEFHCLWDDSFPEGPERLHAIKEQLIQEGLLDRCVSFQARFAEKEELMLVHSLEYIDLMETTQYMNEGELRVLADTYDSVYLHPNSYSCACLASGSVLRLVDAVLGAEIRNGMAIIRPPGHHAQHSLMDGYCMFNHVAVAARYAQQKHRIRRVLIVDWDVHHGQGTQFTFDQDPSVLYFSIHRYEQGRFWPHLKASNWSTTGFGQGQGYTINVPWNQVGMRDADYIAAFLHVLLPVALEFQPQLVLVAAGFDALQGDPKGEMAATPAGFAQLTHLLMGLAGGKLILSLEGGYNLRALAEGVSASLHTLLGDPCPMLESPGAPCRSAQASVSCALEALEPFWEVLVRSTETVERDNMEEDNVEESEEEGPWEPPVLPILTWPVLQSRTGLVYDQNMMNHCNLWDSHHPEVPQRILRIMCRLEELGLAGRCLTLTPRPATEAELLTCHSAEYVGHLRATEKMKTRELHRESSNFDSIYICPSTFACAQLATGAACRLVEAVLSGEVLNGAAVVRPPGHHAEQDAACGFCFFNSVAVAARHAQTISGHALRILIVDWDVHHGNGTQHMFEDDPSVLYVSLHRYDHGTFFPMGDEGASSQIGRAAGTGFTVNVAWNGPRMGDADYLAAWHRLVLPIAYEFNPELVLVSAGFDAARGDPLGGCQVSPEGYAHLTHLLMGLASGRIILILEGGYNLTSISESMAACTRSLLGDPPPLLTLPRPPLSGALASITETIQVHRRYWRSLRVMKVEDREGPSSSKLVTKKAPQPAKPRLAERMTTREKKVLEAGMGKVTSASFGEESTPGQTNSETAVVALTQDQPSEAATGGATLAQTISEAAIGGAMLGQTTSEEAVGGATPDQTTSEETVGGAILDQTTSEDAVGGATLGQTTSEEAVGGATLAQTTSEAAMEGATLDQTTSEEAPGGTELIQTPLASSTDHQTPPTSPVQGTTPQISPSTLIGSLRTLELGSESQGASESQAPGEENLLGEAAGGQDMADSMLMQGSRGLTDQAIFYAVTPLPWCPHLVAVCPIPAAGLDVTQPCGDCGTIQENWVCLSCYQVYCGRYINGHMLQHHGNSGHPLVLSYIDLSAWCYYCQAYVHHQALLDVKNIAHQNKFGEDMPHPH
Description: Inhibition of human recombinant HDAC6 after 30 mins by fluorimetric assay

The target of experiment [4] is Histone deacetylase (Homo sapiens) (UniProt Q13547+O15379+Q9UBN7+Q92769+Q9UQL6+Q8WUI4+Q9BY41+Q96DB2+P56524+Q9UKV0+Q969S8). As to the kind of experiment: Inhibition of class 1 HDAC in human Jurkat cells assessed as acetylated histone H3 level at 0.2 to 20 uM after 24 hrs by Western blotting. The class given is cell-based.
Experiment [5] has as its target T3, Protein deacetylase HDAC6 (Homo sapiens) (UniProt Q9UBN7).
T3 sequence (whole entry): T2 sequence (Q9UBN7 whole entry)
As to the kind of experiment: Inhibition of HDAC6 in human Jurkat cells assessed as acetylated alpha-tubulin level at 0.2 to 20 uM after 24 hrs by Western blotting. It counts as cell-based. A general note: A western blot detects proteins with antibodies after separation by electrophoresis.

A further experiment concerns HeLa. As to the kind of experiment: cells. Particulars: Homo sapiens, 72 h.
For a further experiment, the system named is MCF7. As to the kind of experiment: cells. As to conditions: Homo sapiens, MCF7, 72 h.
For the next experiment, the system named is Jurkat. As to the kind of experiment: cells. As to conditions: Homo sapiens, 72 h.
In another experiment the test system is K562. As to the kind of experiment: cells. As to conditions: Homo sapiens, K562, 72 h.
A further experiment in a line: cells. Particulars: Homo sapiens, KYO1, 72 h.

Active and inactive are the calls of the source. No cut-off for these calls is given here. Square brackets hold non-standard residues; d marks the D form. Peptide text beside a SMILES is read from it. 1Nal = N[C@@H](Cc1cccc2ccccc12)C(=O)O; Asu = N[C@@H](CCCCCC(=O)O)C(=O)O; β3hL = CC(C)C[C@H](N)CC(=O)O

Histone deacetylase 1, sequence (Q13547 whole entry): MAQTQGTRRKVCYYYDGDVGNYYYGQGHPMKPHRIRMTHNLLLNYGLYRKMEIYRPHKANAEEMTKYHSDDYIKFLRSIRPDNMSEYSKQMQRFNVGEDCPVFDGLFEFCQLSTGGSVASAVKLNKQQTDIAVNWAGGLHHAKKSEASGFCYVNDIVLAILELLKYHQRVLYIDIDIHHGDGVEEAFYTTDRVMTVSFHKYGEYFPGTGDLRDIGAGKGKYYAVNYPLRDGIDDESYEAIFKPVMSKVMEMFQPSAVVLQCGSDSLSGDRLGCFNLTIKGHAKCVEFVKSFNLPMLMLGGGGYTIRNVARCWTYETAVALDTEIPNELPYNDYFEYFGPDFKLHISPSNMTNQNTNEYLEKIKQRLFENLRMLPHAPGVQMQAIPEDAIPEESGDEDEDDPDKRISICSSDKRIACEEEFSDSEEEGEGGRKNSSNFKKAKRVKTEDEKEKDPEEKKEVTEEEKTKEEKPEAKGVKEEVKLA
Histone deacetylase 3, sequence (O15379 whole entry): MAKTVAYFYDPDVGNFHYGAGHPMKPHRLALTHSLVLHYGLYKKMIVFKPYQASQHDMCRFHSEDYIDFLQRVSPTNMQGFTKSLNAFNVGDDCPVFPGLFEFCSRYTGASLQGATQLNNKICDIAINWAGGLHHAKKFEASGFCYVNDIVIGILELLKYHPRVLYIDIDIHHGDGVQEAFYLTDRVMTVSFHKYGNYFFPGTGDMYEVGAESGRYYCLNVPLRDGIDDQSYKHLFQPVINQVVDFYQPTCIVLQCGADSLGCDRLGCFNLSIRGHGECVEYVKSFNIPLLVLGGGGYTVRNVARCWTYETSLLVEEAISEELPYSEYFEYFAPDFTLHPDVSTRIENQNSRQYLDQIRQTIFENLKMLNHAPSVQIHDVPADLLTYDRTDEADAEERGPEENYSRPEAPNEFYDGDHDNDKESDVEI
Description for Histone deacetylase 1: Inhibition of human recombinant HDAC1 after 30 mins by fluorimetric assay
Description for Histone deacetylase 3: Inhibition of human recombinant HDAC3 after 30 mins by fluorimetric assay
Description for Histone deacetylase 8: Inhibition of human recombinant HDAC8 after 30 mins by fluorimetric assay

Take `CC(C)C[C@H]1CC(=O)N[C@@H](Cc2ccccc2)C(=O)N[C@@H](CCCCCC(=O)O)C(=O)N[C@@H](Cc2cccc3ccccc23)C(=O)N1` (cyclo([1Nal][β3hL]F[Asu])): the IC50 against Histone deacetylase [1] was found to be 0.253 µM; against Histone deacetylase [2] it was 0.742 µM; at Histone deacetylase 1, 0.068 µM; at Histone deacetylase 3, 0.69 µM; at Histone deacetylase 8, 0.53 µM; in experiment [3], 5.8 µM. For the same molecule, in experiment [4], the outcome was Active. The outcome in experiment [5] was inactive. Moreover, the GI50 in the experiment with HeLa, with MCF7, in the experiment on Jurkat, in the experiment on K562 and in the experiment “cells” was more than 20 µM in each case.
